Measurements taken from publication PMC4844192 (ACS chemical biology, 2015).
Values belong to the compound of their own block, whether it stands above or below them.

Key:
CtBP1 = CtBP1 (Homo sapiens, UniProt Q13363); assay: Isothermal titration calorimetry; details: CtBP1, pH 7.5, displacement ITC with HIPP
CtBP [1] = type: biochemical, human
CtBP2 = CtBP2 (Homo sapiens, UniProt P56545); assay: Isothermal titration calorimetry; type: binding
[2] = system: HCT116 colon cancer cells; details: through displacement of CtBP2 from the Bik promoter; cited from earlier work
CtBP [3] = details: cited from earlier work
mouse xenograft models = details: compared with untreated mice; cited from earlier work
CtBP [4] = details: cited from earlier work; remark: listed apart in the source
[5] = CtBP2, pH 8.5, competitive displacement ITC with HIPP

SMILES: CSCCC(=O)C(=O)O [MTOB, 4-methylthio 2-oxobutyric acid]
ΔG (CtBP1): -3.9 kcal
ΔH (CtBP1): -11.3 ± 0.83 kcal/mol
−TΔS (CtBP1): 7.4 kcal/mol
substrate inhibition (CtBP [1]; MTOB in excess): exhibits substrate inhibition when in excess
binding dissociation constant, direct ITC measurement (CtBP2; CtBP2, direct titration, low signal): low millimolar range
ΔG (CtBP2; [5]): -3.4 kcal
ΔH (CtBP2; [5]): -3.4 ± 0.34 kcal/mol
−TΔS (CtBP2; [5]): 0.0 kcal/mol
apoptosis [2]: induced apoptosis
concentrations required for (substrate) inhibition of CtBP (CtBP [3]): > 300 µM
survival (mouse xenograft models): prolonged survival
tumor burden (mouse xenograft models): decreased tumor burden

SMILES: NC(=O)C1=CN([C@@H]2O[C@H](COP(=O)(O)OP(=O)(O)OC[C@H]3O[C@@H](n4cnc5c(N)ncnc54)[C@H](O)[C@@H]3O)[C@@H](O)[C@H]2O)C=CC1 [NADH]
affinity of CtBP for NADH relative to NAD+ (CtBP [4]): 100 fold

IC50 (CtBP [1]; CtBP dehydrogenase function, after 15 minutes): 135 µM
binding relative to MTOB (ITC injection peaks) (CtBP2; CtBP2, low PPy concentrations, CtBP2 precipitation prevented quantitation): tighter than MTOB
SMILES: O=C(O)C(=O)Cc1ccccc1 [PPy, phenylpyruvate]
